Data from paper PMC9818789, “Identification of Small-Molecule Bioactive Constituents from the Leaves of Vaccinium bracteatum Confirms It as a Potential Functional Food with Health Benefits” (Foods, 2023).

Key:
[1] = ABTS radical scavenging assay; settings: mean ± SD (n = 3); NA = not active (<50% radical scavenging activity at the highest testing concentration of 200 μM); read-out: ABTS free radical scavenging activity IC50
Description: The antioxidant effect of the VBL constituents was assessed by besting their free radical scavenging activity with the ABTS (diammonium 2,2′-azino-bis (3-ethylbenzothiazoline-6-sulphonate) and DPPH (1,1-diphenyl-2-picrylhydrazyl) methods, according to the protocols described previously [10], and ascorbic acid was used as the positive control.

[2] = DPPH radical scavenging assay; settings: mean ± SD (n = 3); NA = not active (<50% radical scavenging activity at the highest testing concentration of 200 μM); read-out: DPPH free radical scavenging activity IC50
Description: The antioxidant effect of the VBL constituents was assessed by besting their free radical scavenging activity with the ABTS (diammonium 2,2′-azino-bis (3-ethylbenzothiazoline-6-sulphonate) and DPPH (1,1-diphenyl-2-picrylhydrazyl) methods, according to the protocols described previously, and ascorbic acid was used as the positive control.

[3] = tested on: PC12 cells; experiment: Neuroprotective assay: 6-OHDA-induced PC12 cell injury, MTT; format: cell-based; settings: for Neuroprotective effect against 6-OHDA-induced PC12 cell injury (cell viability): pretreated 12 h, 6-OHDA 150 μM for 13 h
Description: The cell cultures were prepared according to the method described by Sergi et al.. Briefly, the protection of compounds 1–8 on 6-hydroxydopamine (6-OHDA)-induced PC 12 cell injury was assessed by MTT (3-(4,5-dimethylthiazol-2-yl)-2,5-diphenyltetrazolium bromide) assay, and N-acetylcysteine (NAC, 50 μM) was used as the positive control. PC12 cells were cultured in RPMI 1640 medium supplemented with 10% fetal bovine serum (FBS), and they were incubated at 37
C in a humidified environment containing 5% CO2 and then cultured in 96-well plates at a density of 1.5 × 10^5 cells/well in 100 μL for 24 h. The neuron cells were first pretreated with various concentrations (25, 50, 100 μM) of tested compounds for 12 h before 6-OHDA (150 μM) treatment for further 13 h. Then, 10 μL of MTT was added to each well and incubated for another 4 h, and the crystals were dissolved with DMSO. The optical density at 490 nm was detected by a plate reader. The cell viability was lastly measured to evaluate the compounds’ protective effect, which was expressed as the percentage of the control group.

[4] = tested on: NO production in RAW264.7 macrophages; experiment: NO production inhibitory assay, lipopolysaccharide-induced macrophages; format: cell-based; settings: Mus musculus, lipopolysaccharide-induced murine macrophages, read-out: NO production inhibition IC50
Description: The nitric oxide (NO) production inhibitory assay was conducted in murine RAW264.7 macrophages as we recorded in an early report, with quercetin as the reference compound.

SMILES: COc1cc([C@@H](O)[C@@H](CO)Oc2ccc(CCCO)cc2OC)ccc1O [Compound 11a, threo-4,7,9,9′-tetrahydroxy-3,3′-dimethoxy-8,4′-oxyneolignane]
- IC50 [1]: 12.1 ± 1.42 µM
- IC50 [2]: 98.7 ± 1.78 µM

SMILES: COc1cc(C2c3c(cc(OC)c(O)c3OC)CC(CO)C2CO)cc(OC)c1O (stereo not shown) [Compound 16a, polystachyol]
- IC50 [1]: 11.1 ± 3.31 µM
- IC50 [2]: 47.9 ± 6.6 µM

SMILES: COc1ccc([C@@H]2Oc3c(O)cc(CCCO)cc3[C@H]2CO)cc1OC [Compound 13b, 4-O-methylcedrusin]
- IC50 [1]: 37.1 ± 8.17 µM

SMILES: CO[C@@H]1O[C@@H]2C[C@@H]3[C@H]1[C@@](COC(=O)/C=C\c1ccc(O)cc1)(C[C@H]3O)O2 [Compound 2]
- IC50 [1]: 34.2 ± 3.03 µM

SMILES: CO[C@H]1C[C@@H]2[C@H]([C@H](OC)O1)[C@@](O)(COC(=O)/C=C\c1ccc(O)cc1)C[C@H]2O [Compound 6]
- IC50 [1]: 28.2 ± 0.63 µM
- Neuroprotective effect against 6-OHDA-induced PC12 cell injury (cell viability) ([3]; compound 50 μM): apparent protective activity

SMILES: COc1cc([C@H]2Oc3c(OC)cc(CCCO)cc3[C@@H]2CO)cc(OC)c1O [Compound 15a, 5-methoxydihydrodehydrodiconiferyl alcohol]
- IC50 [1]: 17.2 ± 0.89 µM
- IC50 [2]: 40.4 ± 6.09 µM

SMILES: COC1OC2CC3C(O)CC(COC(=O)C=Cc4ccc(O)cc4)(O2)C13 (stereo not shown) [Compound 1]
- IC50 [1]: 15.3 ± 1.37 µM
- Neuroprotective effect compared with the positive control NAC ([3]; compound 50 μM, NAC 50 μM, 6-OHDA 150 μM): comparable to the positive control NAC
- Neuroprotective effect against 6-OHDA-induced PC12 cell injury (cell viability) ([3]; compound 50 μM): apparent protective activity

SMILES: COc1cc(CCCO)ccc1O[C@@H](CO)[C@H](O)c1cc(OC)c(O)c(OC)c1 [Compound 9a]
- IC50 [1]: 9.39 ± 0.97 µM
- IC50 [2]: 47.5 ± 7.24 µM

SMILES: COc1cc([C@@H]2Oc3c(OC)cc(CCCO)cc3[C@H]2CO)cc(OC)c1O [Compound 15b, 5-methoxydihydrodehydrodiconiferyl alcohol]
- IC50 [1]: 24.2 ± 3.92 µM
- IC50 [2]: 55.1 ± 2.43 µM

SMILES: CO[C@H]1C[C@H]2C=C[C@](O)(COC(=O)/C=C/c3ccc(O)cc3)[C@H]2[C@H](OC)O1 [Compound 7]
- IC50 [1]: 50.6 ± 2.97 µM
- Neuroprotective effect against 6-OHDA-induced PC12 cell injury (cell viability) ([3]; compound 50 μM): apparent protective activity

SMILES: COc1cc([C@H](O)[C@@H](CO)Oc2ccc(CCCO)cc2OC)ccc1O [Compound 10a, erythro-4,7,9,9′-tetrahydroxy-3,3′-dimethoxy-8,4′-oxyneolignane]
- IC50 [1]: 19.7 ± 0.61 µM

SMILES: COc1cc([C@@H](O)[C@H](CO)Oc2ccc(CCCO)cc2OC)ccc1O [Compound 10b, erythro-4,7,9,9′-tetrahydroxy-3,3′-dimethoxy-8,4′-oxyneolignane]
- IC50 [1]: 16.2 ± 2.65 µM

SMILES: COc1cc([C@@H]2Oc3c(OC)cc(CCCO)cc3[C@H]2CO)ccc1O [Compound 14b, dihydrodehydrodiconiferyl alcohol]
- IC50 [1]: 14.1 ± 1.3 µM

SMILES: COc1cc([C@@H]2Oc3c(OC)cc(CCCO)cc3[C@H]2CO)ccc1O [Compound 14a, dihydrodehydrodiconiferyl alcohol]
- IC50 [1]: 12.3 ± 1.82 µM
- IC50 [4]: 52.2 ± 6.17 µM

SMILES: COc1cc(CCCO)cc(OC)c1OC(CO)CO [Compound 22, 3-deoxyartselaenin C]
- IC50 [1]: 168 ± 4.34 µM
- IC50 [2]: 20.2 ± 3.53 µM

SMILES: COC1CC2C(O)CC(O)(COC(=O)C=Cc3ccc(O)cc3)C2C(OC)O1 (stereo not shown) [Compound 5]
- IC50 [1]: 32 ± 1.76 µM
- Neuroprotective effect against 6-OHDA-induced PC12 cell injury (cell viability) ([3]; compound 50 μM): apparent protective activity

SMILES: COc1cc(CCCO)ccc1O[C@H](CO)[C@@H](O)c1cc(OC)c(O)c(OC)c1 [Compound 9b]
- IC50 [1]: 10.1 ± 0.67 µM
- IC50 [2]: 52.6 ± 6.89 µM

SMILES: COc1cc(C2OC(c3ccc(O)c(OC)c3)C(CO)C2CO)ccc1O (stereo not shown) [Compound 17b, neo-olivil]
- IC50 [1]: 7.75 ± 0.71 µM
- IC50 [2]: 62.9 ± 5.65 µM

SMILES: COC1CC2C(O)CC(O)(COC(=O)C=Cc3ccc(O)cc3)C2C(OC)O1 (stereo not shown) [Compound 8]
- IC50 [1]: 39.1 ± 2.3 µM

SMILES: NCCc1cc(O)c(O)cc1O [Compound 6-OHDA, 6-hydroxydopamine, reference compound]
- Inhibition ratio of PC12 cell viability (6-OHDA-induced cell injury) ([3]; 6-OHDA at 150 μM): 52.68%

SMILES: COc1cc([C@H]2Oc3c(O)cc(CCCO)cc3[C@@H]2CO)ccc1O [Compound 12a, cedrusin]
- IC50 [1]: 9.54 ± 0.64 µM
- IC50 [2]: 31.2 ± 1.9 µM

SMILES: O=C1O[C@H]([C@@H](O)CO)C(O)=C1O [Ascorbic acid, ascorbic acid, reference compound]
- IC50 [1]: 24.3 ± 0.41 µM
- IC50 [2]: 13.3 ± 1.86 µM

SMILES: COc1ccc([C@H]2Oc3c(O)cc(CCCO)cc3[C@@H]2CO)cc1OC [Compound 13a, 4-O-methylcedrusin]
- IC50 [1]: 21.7 ± 3.5 µM

SMILES: COc1cc([C@@H]2Oc3c(O)cc(CCCO)cc3[C@H]2CO)ccc1O [Compound 12b, cedrusin]
- IC50 [1]: 12.3 ± 0.24 µM
- IC50 [2]: 44.3 ± 2.05 µM

SMILES: COc1cc(C2c3c(cc(OC)c(O)c3OC)CC(CO)C2CO)cc(OC)c1O (stereo not shown) [Compound 16b, polystachyol]
- IC50 [1]: 26.2 ± 2.24 µM
- IC50 [2]: 96.2 ± 8.34 µM

SMILES: O=C(/C=C\c1ccc(O)cc1)OC[C@@]12C[C@@H](O)[C@@H]3C[C@@H](O[C@@H](O)[C@@H]31)O2 [Compound 4]
- IC50 [1]: 19.4 ± 0.24 µM

SMILES: COc1cc(C2OC(c3cc(OC)c(O)c(OC)c3)C(CO)C2CO)cc(OC)c1O (stereo not shown) [Compound 18a, icariol A2]
- IC50 [1]: 6.87 ± 0.54 µM
- IC50 [2]: 17.3 ± 7.51 µM

SMILES: COc1cc(C2OC(c3cc(OC)c(O)c(OC)c3)C(CO)C2CO)cc(OC)c1O (stereo not shown) [Compound 18b, icariol A2]
- IC50 [2]: 17.9 ± 4.58 µM

SMILES: COc1cc([C@H](O)[C@H](CO)Oc2ccc(CCCO)cc2OC)ccc1O [Compound 11b, threo-4,7,9,9′-tetrahydroxy-3,3′-dimethoxy-8,4′-oxyneolignane]
- IC50 [1]: 14.8 ± 1.25 µM
- IC50 [2]: 105 ± 4.11 µM

SMILES: O=C(/C=C/c1ccc(O)cc1)OC[C@@]12C[C@@H](O)[C@@H]3C[C@@H](O[C@@H](O)[C@@H]31)O2 [Compound 3]
- IC50 [1]: 35.6 ± 1.04 µM

SMILES: COc1cc(C2OC(c3ccc(O)c(OC)c3)C(CO)C2CO)ccc1O (stereo not shown) [Compound 17a, neo-olivil]
- IC50 [1]: 5.96 ± 0.3 µM
- IC50 [2]: 40.8 ± 5.98 µM
